Laboratory results published in ChEMBL document CHEMBL1201861, “Genomics of Drug Sensitity in Cancer screening data, Wellcome Trust Sanger Institute”.
pIC50: −log10 of the molar value.

Experiments:
Experiment in all cases: cells
Type in all cases: functional, cell-based, Homo sapiens
[1] = system: EFO-27;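 further: growth inhibition of EFO-27 cells, read out with a cell viability assay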
Description: SANGER: Inhibition of human EFO-27 cell growth in a cell viability assay.

[2] = system: EW-22;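 further: growth inhibition of the EW-22 cell line, measured with a cell viability readout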
Description: SANGER: Inhibition of human EW-22 cell growth in a cell viability assay.

[3] = system: HCC1419;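 further: growth inhibition of human HCC1419 cells, read out as cell viability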
Description: SANGER: Inhibition of human HCC1419 cell growth in a cell viability assay.

[4] = system: SW1710;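 further: growth inhibition of SW1710 cells, determined with a cell viability assay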
Description: SANGER: Inhibition of human SW1710 cell growth in a cell viability assay.

[5] = system: DMS-273
Description: SANGER: Inhibition of human DMS-273 cell growth in a cell viability assay.

[6] = system: CAPAN-1;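 further: growth suppression of CAPAN-1 cells, read out by a cell viability assay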
Description: SANGER: Inhibition of human CAPAN-1 cell growth in a cell viability assay.

[7] = system: CAL-72;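 further: cell viability assay measuring inhibition of proliferation in the CAL-72 cell line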
Description: SANGER: Inhibition of human CAL-72 cell growth in a cell viability assay.

[8] = system: P12-Ichikawa
[9] = system: NCI-H1623;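 further: cell viability assay used as the read-out for growth inhibition of NCI-H1623 cells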
Description: SANGER: Inhibition of human NCI-H1623 cell growth in a cell viability assay.

[10] = system: HCC1395;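 further: growth inhibition of HCC1395 cells, read out by a cell viability assay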
Description: SANGER: Inhibition of human HCC1395 cell growth in a cell viability assay.

[11] = system: NB14;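 further: growth inhibition of NB14 cells measured with a cell viability assay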
Description: SANGER: Inhibition of human NB14 cell growth in a cell viability assay.

[12] = system: RD
Description: SANGER: Inhibition of human RD cell growth in a cell viability assay.

[13] = system: C3A;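 further: growth inhibition of C3A human cells, quantified with a cell viability readout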
Description: SANGER: Inhibition of human C3A cell growth in a cell viability assay.

[14] = system: BT-20;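 further: cell viability assay measuring suppression of growth in human BT-20 cells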
Description: SANGER: Inhibition of human BT-20 cell growth in a cell viability assay.

[15] = system: RERF-LC-MS;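 further: growth inhibition of human RERF-LC-MS cells, read out by a cell viability assay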
Description: SANGER: Inhibition of human RERF-LC-MS cell growth in a cell viability assay.

[16] = system: FaDu;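 further: cell viability readout of growth inhibition in FaDu cells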
Description: SANGER: Inhibition of human FADU cell growth in a cell viability assay.

[17] = system: HTC-C3;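 further: inhibition of cell growth, read out with a cell viability assay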
Description: SANGER: Inhibition of human HTC-C3 cell growth in a cell viability assay.

[18] = system: SW948;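 further: growth inhibition of SW948 cells, read out with a cell viability assay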
Description: SANGER: Inhibition of human SW948 cell growth in a cell viability assay.

[19] = system: BCPAP;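 further: growth inhibition of BCPAP cells, read out in a cell viability assay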
Description: SANGER: Inhibition of human BCPAP cell growth in a cell viability assay.

[20] = system: 8305C
Description: SANGER: Inhibition of human 8305C cell growth in a cell viability assay.

[21] = system: 23132-87
Description: SANGER: Inhibition of human 23132-87 cell growth in a cell viability assay.

[22] = system: SW48;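 further: growth inhibition of SW48 cells, read out with a cell viability assay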
Description: SANGER: Inhibition of human SW48 cell growth in a cell viability assay.

[23] = system: KU-19-19
Description: SANGER: Inhibition of human KU-19-19 cell growth in a cell viability assay.

[24] = system: NCI-H441;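 further: growth inhibition of NCI-H441 cells, read out with a cell viability assay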
Description: SANGER: Inhibition of human NCI-H441 cell growth in a cell viability assay.

[25] = system: D-336MG
Description: SANGER: Inhibition of human D-336MG cell growth in a cell viability assay.

[26] = system: NCI-H650;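 further: growth inhibition of NCI-H650 cells, read out by a viability assay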
Description: SANGER: Inhibition of human NCI-H650 cell growth in a cell viability assay.

[27] = system: SW626;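 further: growth inhibition of SW626 cells, measured with a cell viability assay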
Description: SANGER: Inhibition of human SW626 cell growth in a cell viability assay.

[28] = system: CAL-120;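 further: cell growth inhibition, read out as cell viability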
Description: SANGER: Inhibition of human CAL-120 cell growth in a cell viability assay.

[29] = system: 5637
Description: SANGER: Inhibition of human 5637 cell growth in a cell viability assay.

[30] = system: NCI-H2405;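 further: growth inhibition of the human cell line, read out with a cell viability assay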
Description: SANGER: Inhibition of human NCI-H2405 cell growth in a cell viability assay.

[31] = system: OE19;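 further: growth inhibition of OE19 cells, measured through a cell viability read-out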
Description: SANGER: Inhibition of human OE19 cell growth in a cell viability assay.

[32] = system: TCC-SUP;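 further: growth inhibition of TCC-SUP cells, read out with a cell viability assay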
Description: SANGER: Inhibition of human TCCSUP cell growth in a cell viability assay.

[33] = system: T-24;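 further: growth inhibition of T-24 cells, read out with a cell viability assay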
Description: SANGER: Inhibition of human T-24 cell growth in a cell viability assay.

[34] = system: SKG-IIIa;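 further: cell growth inhibition, read out with a cell viability assay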
Description: SANGER: Inhibition of human SKG-IIIa cell growth in a cell viability assay.

[35] = system: J82;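 further: growth inhibition of J82 cells, read out with a cell viability assay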
Description: SANGER: Inhibition of human J82 cell growth in a cell viability assay.

[36] = system: NCI-H2452;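 further: growth inhibition of NCI-H2452 cells, read out with a cell viability assay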
Description: SANGER: Inhibition of human NCI-H2452 cell growth in a cell viability assay.

[37] = system: AGS;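 further: growth inhibition of AGS cells, determined with a cell viability assay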
Description: SANGER: Inhibition of human AGS cell growth in a cell viability assay.

[38] = system: SiHa;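 further: Viability-based readout of growth inhibition in SiHa cells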
Description: SANGER: Inhibition of human SiHa cell growth in a cell viability assay.

Question: How did the pIC50 ([1]; Homo sapiens, EFO-27) turn out when `CS(=O)(=O)c1ccc(C(=O)Nc2ccc(Cl)c(-c3ccccn3)c2)c(Cl)c1` [VISMODEGIB] was run?
Answer: The pIC50 was under 5.00.

Question: What about the pIC50 ([2]; Homo sapiens, EW-22) of the same compound?
Answer: The pIC50 was under 5.00.

Question: And the pIC50 ([3]; Homo sapiens, HCC1419)?
Answer: Its pIC50 is under 5.00.

Question: And the pIC50 ([4]; Homo sapiens, SW1710)?
Answer: The pIC50 was under 5.00.

Question: And the pIC50 ([5]; Homo sapiens, DMS-273)?
Answer: The pIC50 was under 5.00.

Question: And the pIC50 ([6]; Homo sapiens, CAPAN-1)?
Answer: Its pIC50 is under 5.00.

Question: And the pIC50 ([7]; Homo sapiens, CAL-72)?
Answer: The pIC50 was under 5.00.

Question: What about the pIC50 ([8]; Homo sapiens, P12-Ichikawa) of the same compound?
Answer: The pIC50 was under 5.00.

Question: And the pIC50 ([9]; Homo sapiens, NCI-H1623)?
Answer: Its pIC50 is under 5.00.

Question: And the pIC50 ([10]; Homo sapiens, HCC1395)?
Answer: The pIC50 was under 5.00.

Question: What about the pIC50 ([11]; Homo sapiens, NB14) of the same compound?
Answer: Its pIC50 is under 5.00.

Question: And the pIC50 ([12]; Homo sapiens, RD)?
Answer: Its pIC50 is under 5.00.

Question: What about the pIC50 ([13]; Homo sapiens, C3A) of the same compound?
Answer: The pIC50 was under 5.00.

Question: What about the pIC50 ([14]; Homo sapiens, BT-20) of the same compound?
Answer: The pIC50 was under 5.00.

Question: And the pIC50 ([15]; Homo sapiens, RERF-LC-MS)?
Answer: The pIC50 was under 5.00.

Question: And the pIC50 ([16]; Homo sapiens, FaDu)?
Answer: Its pIC50 is under 5.00.

Question: What about the pIC50 ([17]; Homo sapiens, HTC-C3) of the same compound?
Answer: The pIC50 was under 5.00.

Question: What about the pIC50 ([18]; Homo sapiens, SW948) of the same compound?
Answer: Its pIC50 is under 5.00.

Question: And the pIC50 ([19]; Homo sapiens, BCPAP)?
Answer: The pIC50 was under 5.00.

Question: What about the pIC50 ([20]; Homo sapiens, 8305C) of the same compound?
Answer: The pIC50 was under 5.00.

Question: What about the pIC50 ([21]; Homo sapiens) of the same compound?
Answer: The pIC50 was 5.36.

Question: What about the pIC50 ([22]; Homo sapiens, SW48) of the same compound?
Answer: The pIC50 was under 5.00.

Question: What about the pIC50 ([23]; Homo sapiens, KU-19-19) of the same compound?
Answer: Its pIC50 is under 5.00.

Question: What about the pIC50 ([24]; Homo sapiens, NCI-H441) of the same compound?
Answer: Its pIC50 is under 5.00.

Question: And the pIC50 ([25]; Homo sapiens, D-336MG)?
Answer: The pIC50 was under 5.00.

Question: What about the pIC50 ([26]; Homo sapiens, NCI-H650) of the same compound?
Answer: Its pIC50 is under 5.00.

Question: What about the pIC50 ([27]; Homo sapiens, SW626) of the same compound?
Answer: The pIC50 was under 5.00.

Question: What about the pIC50 ([28]; Homo sapiens, CAL-120) of the same compound?
Answer: The pIC50 was under 5.00.

Question: And the pIC50 ([29]; Homo sapiens)?
Answer: Its pIC50 is under 5.00.

Question: And the pIC50 ([30]; Homo sapiens, NCI-H2405)?
Answer: Its pIC50 is under 5.00.

Question: And the pIC50 ([31]; Homo sapiens, OE19)?
Answer: The pIC50 was under 5.00.

Question: And the pIC50 ([32]; Homo sapiens, TCC-SUP)?
Answer: The pIC50 was under 5.00.

Question: What about the pIC50 ([33]; Homo sapiens, T-24) of the same compound?
Answer: Its pIC50 is under 5.00.

Question: What about the pIC50 ([34]; Homo sapiens, SKG-IIIa) of the same compound?
Answer: Its pIC50 is under 5.00.

Question: What about the pIC50 ([35]; Homo sapiens, J82) of the same compound?
Answer: Its pIC50 is under 5.00.

Question: What about the pIC50 ([36]; Homo sapiens, NCI-H2452) of the same compound?
Answer: The pIC50 was under 5.00.

Question: And the pIC50 ([37]; Homo sapiens, AGS)?
Answer: Its pIC50 is under 5.00.

Question: And the pIC50 ([38]; Homo sapiens, SiHa)?
Answer: The pIC50 was under 5.00.

Question: What does the source list for CISPLATIN?
Answer: pIC50 ([1]; efo-27): 4.88; pIC50 ([2]; ew-22): 5.68; pIC50 ([3]; hcc1419): 4.53; pIC50 ([4]; sw1710): 4.35; pIC50 ([5]; dms-273): 5.01; pIC50 ([6]; capan-1): 4.61; pIC50 ([7]; cal-72): 4.63; pIC50 ([8]; p12-ichikawa): 5.69; pIC50 ([9]; nci-h1623): 4.33; pIC50 ([10]; hcc1395): 3.85; pIC50 ([11]; nb14): 3.77; pIC50 ([12]; rd): 4.84; pIC50 ([13]; c3a): 3.39; pIC50 ([14]; bt-20): 3.67; pIC50 ([15]; rerf-lc-ms): 3.38; pIC50 ([16]; fadu): 5.05; pIC50 ([17]; htc-c3): 5.35; pIC50 ([18]; sw948): 3.65; pIC50 ([19]; bcpap): 3.64; pIC50 ([20]; 8305c): 4.21; pIC50 [21]: 4.22; pIC50 ([22]; sw48): 5.04; pIC50 ([23]; ku-19-19): 5.00; pIC50 ([24]; nci-h441): 3.70; pIC50 ([25]; d-336mg): 4.47; pIC50 ([26]; nci-h650): 4.52; pIC50 ([27]; sw626): 4.48; pIC50 ([28]; cal-120): 3.58; pIC50 [29]: 5.35; pIC50 ([30]; nci-h2405): 4.64; pIC50 ([31]; oe19): 3.15; pIC50 ([32]; tcc-sup): 5.07; pIC50 ([33]; t-24): 5.25; pIC50 ([34]; skg-iiia): 5.15; pIC50 ([35]; j82): 5.29; pIC50 ([36]; nci-h2452): 3.67; pIC50 ([37]; ags): 4.61; pIC50 ([38]; siha): 4.77
